The values below come from patent US20190216831A1 (priority 2015, published 2019).

For data set [1], the system named is EIAVWYO. Kind of data set: EIAV replication kinetics in equine dermal cells, RT qPCR of culture supernatants. It is filed as cell-based, Equine infectious anemia virus. The settings on record: for EIAV viral replication decreased to (from 10^8) / EIAV viral replication reduced to (from 10^8): 10 μM; for EIAV viral replication decreased to (from 10^8): day 15 post infection; for EIAV viral replication reduced to (from 10^8): day 15 and 20 post infection. As for the experimental part: Equine dermal cells (3×10^4 cells per well of a 96-well plate) were seeded and incubated in complete media (as described above for NEV infections) under 5% CO2 at 37° C., for 24 h to 72 hours prior to infection. The antiviral effect adefovir dipivoxil, as well as other are antiviral drugs approved by FDA or EMA such as Zidovudine (nucleoside reverse transcription inhibitor), Nevirapine (non-nucleoside reverse transcription inhibitor), Indinavir sulphate (a HIV-1 protease inhibitor), Darunavir Ethanolate (a HIV-1 protease inhibitor), Daclastavir (HCV NS5A inhibitor), Cyclosporin A (immunosuppressive agent) and the drug that is being evaluated in pre-clinical/clinical assays as antivirals, such as Tenofovir (a nucleoside reverse transcription inhibitor), was evaluated (FIGS. 4A and 4B).
The drugs mentioned above were also tested as antivirals for EIAV. For that cells were pre-treated with drugs at two different concentrations 1 or 10 μM for 1 hour in triplicates. Cells were then infected with EIAVWYO (3 MOI for 2 hours). After infection fresh media and drugs were replaced and cells incubated for 5, 10, 15 and 20 days. The EIAVWYO replication was evaluated by quantifying EIAV viral genome in culture supernatants by means of RT qPCR. FIGS. 4A and 4B show the effect of the different drugs in EIAV replication kinetics. […] Virus was only recovered at low levels from treated cells in one of three replicate at day 5 (10 viral particles/mL) and another of three replicates at day 15 (100 viral particles/mL). The differences observed between the treated and not treated infected cells were statistically significant for p<0.001.

Data set [2] deals with EHV-1. Kind of data set: cells. The conditions noted are these: Equus caballus, 144 h, read-out: IC50 for EHV-1 by cell viability.
Experimental: (§6) Equine Dermal cells (ATCC CCL57) (10^5 cells/cm^2) were seeded in 96 well plates 24 to 72 hours before infection in complete media and incubated in a humid chamber at 37° C. and 5% CO2 until 95%-99% confluent monolayers were attained. Complete media was composed of DMEM medium (Gibco, Thermofisher Scientific) with 10% of Inactivated Fetal bovine serum (Gibco, Thermofisher Scientific), 1% of Glutamax (Gibco, Life Technologies) and 1% Penicilin-Streptamicin (Gibco, Thermofisher Scientific). […] (Selleckchem, Germany). The pre-treatment with the drug preceded the infection.
(§7) ED cells were pre-treated with drug for 30 minutes before infection, and treatment maintained during infection.
(§8) Cells were infected with EHV-1 at 1 MOI for 2 hours. Infective EHV-1 viral particles were produced in ED cells with an EHV-1 molecular clone purchased from ATCC (VR-2248). After infection cells were washed twice with HBSS to remove unbound virus and fresh complete media and fresh drug was replaced in each well. Treatment was maintained during 6 days without addition of fresh drug.
(§9) After 6 days post-infection reazurin-based cell viability assays (PrestoBlue, Thermofisher Scientific) were used to evaluate the increased cell numbers in the same conditions as indicated above for qPCR quantification. […] 15 μl of Prestoblue reagent was added directly to the assay wells and absorbance measured at 570 nm after 24 hours of incubation with the Prestoblue reagent. All the absorbance values were corrected by removing the baseline, absorbance values of the Prestoblue reagent incubated 24 hours without cells. The results were analysed by Prism software by using the four-parameter function (log (drug) vs. response assuming a variable slope).
(§10) Equine Dermal cells (ATCC CCL57) (10^5 cells/cm^2) were seeded in 96 well plates 24 to 72 hours before infection in complete media and incubated in a humid chamber at 37° C. and 5% CO2 until 95%-99% confluent monolayers were attained. Complete media was composed of DMEM medium (Gibco, Thermofisher Scientific) with 10% of Inactivated Fetal bovine serum (Gibco, Thermofisher Scientific), 1% of Glutamax (Gibco, Thermofisher Scientific) and 1% Penicilin-Streptamicin (Gibco, Thermofisher Scientific). […] (Selleckchem, Germany). The pre-treatment with the drug preceded the infection.
The test system of data set [3] is EHV-1. Description: EHV-1 viral particles in supernatant of ED cells by qPCR. The format is cell-based, Equine herpesvirus 1. The conditions noted are these: Equus caballus, 72 h, day 3 post infection. How it is done:
(Selleckchem, Germany). The pre-treatment with the drug preceded the infection.
A standard curve of an EHV-1 synthetic DNA was used. To obtain the standard curve, seven 1:10 dilutions of the synthetic DNA in duplicates were tested in parallel. Samples were tested in triplicates. The standard curve obtained (with R2 0.995, Efficiency 91.7%) allowed us to quantify the EHV-1 viral particles produced into the cell culture media.
(In general: Real-time PCR tracks product formation cycle by cycle.)

Data set [4] deals with EHV-1. The settings on record: ED cells.
Experimental: as §6, §7, §8, §9, §10
Data set [5] relates to EHV-1. Description: EHV-1 viral particles in supernatant of MacF macrophage-like cells by qPCR. It is filed as cell-based, Equine herpesvirus 1. The conditions noted are these: Equus caballus, 72 h, day 3 post infection. How it is done:
(§1) Antiviral activity of Adefovir dipivoxil was also evaluated in macrophage like cell lines. […] (Selleckchem, Germany). The pre-treatment with the drug preceded the infection.
(§2) Infections studies, viral particle quantification and cell viability assays were performed as described above for antiviral assays in ED cells.
(§3) Antiviral activity of Tenofovir disoproxil fumarate was also evaluated in macrophage like cell lines. […] (Selleckchem, Germany). The pre-treatment with the drug preceded the infection.
(§4) EHV-1 cell infections, viral particle production and cell viability assays were assayed as described in example 5.

In data set [6] the test system is EHV-1. Kind of data set: PrestoBlue cell viability of EHV-1 infected MacF macrophage-like cells. The format is cell-based, Equine herpesvirus 1. The settings on record: Equus caballus, 144 h, day 6 post infection, average of two independent experiments. How it is done:
as §1, §2, §3, §4

The nature of a further data set: in vitro. The conditions noted are these: horse (equine).
In data set [7] the test system is NEV. Kind of data set: Antiviral drug screen: PrestoBlue cell viability of NEV-infected Equine Dermal cells. The format is cell-based, New Equine Virus. The settings on record: ED cells, 9 days. The text has this:
(§5) Complete media was composed of DMEM medium (Gibco, Life Technologies) with 10% Inactivated Fetal bovine serum (Gibco, Life Technologies), 1% Glutamax (Gibco, Life Technologies) and 1% Penicillin-Streptamicin (Gibco, Life Technologies).
The antiviral effect of adefovir dipivoxil, as well as other are antiviral drugs approved by FDA or EMA such as Zidovudine (nucleoside reverse transcription inhibitor), Nevirapine (non-nucleoside reverse transcription inhibitor), Indinavir sulphate (a HIV-1 protease inhibitor), Darunavir Ethanolate (a HIV-1 protease inhibitor), Daclastavir (HCV NS5A inhibitor), Cyclosporin A (immunosuppressive agent) and the drug that is being evaluated in pre-clinical/clinical assays as antivirals, such as Tenofovir (a nucleoside reverse transcription inhibitor), was evaluated (FIGS. 4A and 4B). Cells were pre-treated with drugs at 1 or 10 μM in quintuplicates for one hour and infected with NEV (1130 PFU per well) for 2 hours. After 2 hours fresh media with drugs was replaced. Cells were then incubated for 9 days in a humid chamber 37° C. and 5% CO2. After 9 days cellular viability of treated cells was compared to those of non infected cells and infected and not treated cells by using PrestoBlue cell viability reagent. […]

Data set [8] deals with NEV. Kind of data set: Dose response: PrestoBlue cell viability of NEV-infected ED cells. It is filed as cell-based, New Equine Virus. As for the experimental part:
as §5
(Selleckchem, Germany). The pre-treatment with adefovir dipivoxil (Selleckchem, Germany) preceded the infection. To determine drug IC50 ten 1:2 serial dilutions ranging from 5 to 2560 nM concentrations were performed in quintuplicates for each drug concentration. ED cells were pre-treated with drug for 60 minutes before infection, and treatment maintained during infection. NEV viral particles (10 μl containing 1130 PFU) were added to the cell culture media for 2 hours. […] Eleven days after infection, cells were screened for viability by using the PrestoBlue cell viability assay (Molecular Probes, Life Technologies) accordingly to manufacturer instructions. Absorbance (570 nm) of adefovir dipivoxil treated cells was compared to those of non-infected and/or untreated NEV-infected cells.

For data set [9], the system named is EIAVWYO. Kind of data set: IC50 for EIAVWYO viral replication in ED cells by RT qPCR. It is filed as cell-based. The settings on record: Equine infectious anemia virus, 168 h, read-out: IC50 (EIAVWYO viral replication). As for the experimental part: Furthermore, to better evaluate the effect of the drug on EIAVWYO viral replication on ED cells, we have determined the IC50 of adefovir dipivoxil. […] (Selleckchem, Germany) for 60 minutes. The pre-treatment with Adefovir dipivoxil (Selleckchem, Germany) preceded the infection. Eleven serial dilutions ranging from 0.01 to 10,000 nM (0.01, 19.53, 39.06, 78.130, 156.250, 312.5, 625, 1250, 2500, 5000 and 10000 nM) were performed in triplicates for each drug concentration. Treatment was maintained during infection. EIAVWYO viral particles (10 μl containing 1.9×10^5 viral particles) were added in each well of a 96-well plate and incubated for 2 hours. […] For quantification, a standard curve of an EIAV plasmid DNA was used. To obtain the standard curve, seven 1:10 dilutions in duplicates were tested in parallel. Samples were tested in triplicates. The standard curve obtained (with R^2 0.994, Efficiency 96.56%) allowed us to quantify the viral particles.

A short description of data set [10]: Cytotoxicity (CC50) in MacF macrophage cell line, PrestoBlue. It is filed as cell-based. The settings on record: horse (equine), MacF cells, treated for 7 days. The text has this:
(Selleckchem, Germany) for 7 days.

Data set [11] relates to NEV. Kind of data set: Dose response: PrestoBlue cell viability of NEV-infected equine macrophage cell line (MacF). The format is cell-based, New Equine Virus. As for the experimental part: An equine macrophage cell line (MacF) was spontaneously immortalized from a NEV-seropositive horse accordingly the procedures reported in Fidalgo-Carvalho et. al, 2009.
Cells were incubated 24 to 72 hours before NEV infection until 95%-99% confluent cell monolayers were attained.
(Selleckchem, Germany), as reported above for ED cells. To determine drug IC50 in MacF cell line, eleven serial dilutions of 1:4 ranging from 0.05 nM to 28 μM were performed in quintuplicates for each drug concentration. MacF Cells were pre-treated with drug for 60 minutes before infection, and treatment was maintained during infection. NEV viral particles (10 μl containing 1130 PFU) were added to the cell culture media for 2 hours. […] Eleven days after infection, cells were screened for viability by using the PrestoBlue cell viability assay (Molecular Probes, Life Technologies) accordingly to manufacturer instructions. Absorbance (570 nm) of adefovir dipivoxil treated cells was compared to those of non-infected and/or untreated NEV infected cells.

Experimental for in vitro: For that, ED cells (10^5 cells/cm^2) were seeded as mentioned above in 96-well plates. […] To determine drug CC50, twelve different concentrations of 4, 6, 9, 13.5, 20.250, 30.370, 45.560, 68.340, 102.520, 153.770, 230.660 and 2000 μM were performed in quintuplicates per each drug concentration. Cell viability was assessed by using the PrestoBlue reagent as mention above for IC50 analysis and incubated for 24 hours.
For that, ED cells (10^5 cells/cm^2) were seeded as mentioned above in 96-well plates. […] To determine drug CC50, ten different 1:1.3 serial dilutions from 25.39 to 350 μM were performed in quintuplicates per each drug concentration. Cell viability was assessed by using the PrestoBlue reagent as mention above for IC50 analysis and incubated for 24 hours.

`CC(C)CN(C[C@@H](O)[C@H](Cc1ccccc1)NC(=O)O[C@H]1CO[C@H]2OCC[C@H]21)S(=O)(=O)c1ccc(N)cc1` [Darunavir]: the “EIAV viral replication decreased to (from 10^8)” value in the data set with EIAVWYO [1] is recorded as 10^3 viral particles/mL.

As usually defined, the IC50 is the concentration at which inhibition is half-maximal. On to `CC(C)OC(=O)OCOP(=O)(CO[C@H](C)Cn1cnc2c(N)ncnc21)OCOC(=O)OC(C)C.O=C(O)/C=C/C(=O)O` [tenofovir disoproxil fumarate], for which the IC50 in the data set with EHV-1 [2] is 14000 nM; in the data set with EHV-1 [3] (average of four independent experiments), 7440 nM; in the data set on EHV-1 [5] (average of two independent experiments), 1130 nM; in the data set with EHV-1 [6], 22700 nM. Further, in the data set with EHV-1 [4], the “therapeutic index (CC50/IC50) for EHV-1” value turned out to be 8.334. This compound also registered a CC50 at 3 days in “in vitro” of 117000 nM.

As for `C[C@H](Cn1cnc2c(N)ncnc21)OCP(=O)(O)O` [tenofovir, [(2R)-1-(6-aminopurin-9-yl)propan-2-yl]oxymethylphosphonic acid], the “EIAV viral replication reduced to (from 10^8)” value in the data set with EIAVWYO [1] is 10^5 viral particles/mL. The “cell viability of NEV infected cells” value in the data set on NEV [7] (drug at 10 μM) was “increased the cell viability of infected cells”.

Regarding `CC(C)(C)NC(=O)[C@@H]1CN(Cc2cccnc2)CCN1C[C@@H](O)C[C@@H](Cc1ccccc1)C(=O)N[C@H]1c2ccccc2C[C@H]1O` [Indinavir], the “EIAV viral replication decreased to (from 10^8)” value with EIAVWYO [1] is on record as 10^4 viral particles/mL.

Take `CC(C)(C)C(=O)OCOP(=O)(COCCn1cnc2c(N)ncnc21)OCOC(=O)C(C)(C)C` [adefovir dipivoxil, 9-[2-[[bis[(pivaloyloxy)methoxy]phosphinyl]-methoxy]ethyl]adenine]: the IC50 is 123 nM in the data set with EHV-1 [2]; 113 nM in the data set on NEV [8] (Equus caballus, 264 h, 11 days after infection); 3.38 nM in the data set on EIAVWYO [9]; 4.42 nM with EHV-1 [3] (three independent experiments); 3840 nM in the data set on NEV [11] (Equus caballus, Macrophage, 264 h, MacF cells, 11 days after infection); 142 nM with EHV-1 [5] (average of three independent experiments). In the data set with EHV-1 [6], the IC50 was found to be 172 nM. Further, the “cell viability (absorbance) compared with non-infected mock cells” value in the data set on NEV [8] (320 nM, 11 days post NEV infection) is given as “very similar absorbance values”. Further, in [10], the CC50 at 7 days worked out at 207000 nM. Further, the “therapeutic index (CC50/IC50) for EHV-1” value with EHV-1 [4] was 1162.3. In the data set on EIAVWYO [1] (ED cells, 1 or 10 μM, single dose, up to 20 days), the “effect on EIAV replication” value is listed as “blocked the EIAV replication”. Moreover, the “virus recovered from treated cells” value in the data set with EIAVWYO [1] (day 5, one of three replicates) is listed as 10 viral particles/mL; in the data set on EIAVWYO [1] (day 15, one of three replicates), 100 viral particles/mL. In addition, in the data set with NEV [11] (14 μM, 11 days post NEV infection), the “cell viability (absorbance) compared with Mock MacF cells” value was “very similar (or even slightly higher)”. Moreover, in the data set on NEV [7] (drug at 1 or 10 μM, vs non infected and untreated infected cells), the “cellular viability of NEV infected cells” value was “completely reverted the effect of NEV on cellular viability”. Also, the CC50 at 6 days in “in vitro” (Equine Dermal (ED) cells (ATCC CCL57)) worked out at 142000 nM.

Consider `Cc1cn([C@H]2C[C@H](N=[N+]=[N-])[C@@H](CO)O2)c(=O)[nH]c1=O` [zidovudine], for which, in the data set with EIAVWYO [1], the “EIAV viral replication reduced to (from 10^8)” value is 10^5 viral particles/mL.
